From US20220185793A1, “COMPOUNDS FOR THE TREATMENT OF ONCOVIRUS INDUCED CANCER AND METHODS OF USE THEREOF” (Cellestia Biotech AG, priority 2019, published 2022)

Columns and labels:
[1] = tested on: EBV positive human lymphoma HG-3 cells; assay: Alamar blue proliferation assay in HG-3 cells; type: cell-based; conditions: 72 hours; for anti-proliferative effect on HG-3 cells (in words): Alamar blue, FIG. 1 and Table 1; for IC50: Homo sapiens, concentration range 0.01-10 μM, Alamar blue assay, read-out: Anti-proliferative IC50 values
Experimental: (§1) One million human EBV positive lymphoma cell lines HG3 and LCL070903 (Rosén et al., 2012) were cultured in RPMI1640 media supplemented with 10% FCS. […] Following treatment cells were harvested and washed with 1× PBS. Total RNA was extracted as described below.
(§2) Alamarblue® and PrestoBlue proliferation assays were performed to determine the growth kinetics of EBV inhibitor treated cells. Alamar blue® and PrestoBlue consists of a cell permeable substrate resazurin. In metabolically active and proliferating cells, resazurin is converted to resorufin due to an intrinsic reducing power of live cells and produces a red fluorescence. Therefore production of resorufin serves as an indicator of the viability of the cell population.
(§3) Proliferation assays were performed by seeding 5000 cells/well in a 96 well plate. […] Each concentration was tested in 4 replicates. To determine the growth kinetics, 10 μl of Alamar blue® or PrestoBlue (Invitrogen) was added to each well and incubated for 4 hours. Readout was taken using Tecan F500 (Tecan) multiplate reader or Varioskan LUX (ThermoFisher) multiplate reader.
In order to determine anti-cancer activity of compounds in oncoviral driven cells, an EBV infected human Chronic Lymphocytic Leukemia cell line HG-3 was used (Rosen et al., 2012). In brief, HG-3 cells were plated in a 96 well plate and treated with an increasing concentration of compounds.

LMP1 = assay: EBV target gene downregulation (qPCR) in HG-3 cells: LMP1; type: cell-based; conditions: Homo sapiens, mRNA by qPCR, Table 2
Experimental: (§4) One million human EBV positive lymphoma cell lines HG3 and LCL070903 (Rosén et al., 2012) were cultured in RPMI1640 media supplemented with 10% FCS. For RNA expression analysis cells were treated with compounds at 10 μM concentration and for proliferation assay cells were treated at a concentration range of 0.01-100 μM. Following treatment cells were harvested and washed with 1× PBS. Total RNA was extracted as described below.
(§5) Total RNA was extracted from cells using TRIzol® extraction kit (Invitrogen). Briefly, 1×10^6 cells were washed with ice-cold 1× PBS and lysed in 1 ml of TRIzol® solution for 5 minutes at room temperature to dissociate nucleoprotein complexes. Lysed cells were then treated with 200 μl of chloroform and shaked vigorously for 15-30 seconds and incubated at room temperature for 2-3 minutes. The samples were centrifuged at 14000 rpm using Eppendorf table top centrifuge for 10 minutes at 4° C. Following centrifugation, upper aqueous phase was transferred to new eppendorf tubes. To precipitate total RNA 500 μl of […] was added to the separated aqueous phase and incubated at room temperature for 10 minutes. A RNA pellet was obtained by centrifuging the samples at 4° C. for 10 minutes. RNA pellet obtained was washed with 1 ml ice cold 75% ethanol and spun down at 14000 rpm at 4° C. RNA pellet was dried off of excess of ethanol and resuspended in 40 IA DPEC water.
(§6) Total RNA extracted from the cell was used to synthesize cDNA by reverse transcription reaction. Reverse transcription was performed according to one of the two following protocols.
(§7) In first protocol, SuperScript™ RT (Invitrogen) was used for reverse transcription reaction. RNA concentration was measured using NanoDrop®ND-1000 spectrophotometer (Witec AG) and 500 ng of total RNA was mixed with a 10 mM mix of dNTPs and 100 ng of random primers. The reaction mix was incubated at 65° C. for 5 minutes and quickly incubated on ice for 1 minute. Following incubation on ice, 5× first strand buffer and 0.1M DTT were added and mix was incubated for 2 minutes at 25° C. To start the reverse transcription reaction, 200U of SuperScrip™ II RT was added to the reaction mix and incubated at 42° C. for 50 minutes. The reaction was stopped by incubating the reaction mix at 75° C. for 15 minutes.
(§8) In second protocol, reverse transcription was performed using PrimeScript RT Master Mix (Takara). RNA concentration was measured using NanoDrop®ND-1000 spectrophotometer (Witec AG) and 1 μg of total RNA was mixed with 4 μL 5X PrimeScript RT Master Mix in a total reaction volume of 20 μL. […]
(§9) To determine the ability of compounds to downregulate EBV driven gene expression, HG-3 cells were treated with selected compounds and percentage inhibition of EBV target genes was determined by quantitative PCR. […]

RUNX3 = assay: EBV target gene downregulation (qPCR) in HG-3 cells: RUNX3; type: cell-based; conditions: Homo sapiens, mRNA by qPCR, Table 2
Experimental: as §4, §5, §6, §7, §8, §9

EBNA2 [2] = assay: EBV target gene downregulation (qPCR) in HG-3 cells: EBNA2; type: cell-based; conditions: Homo sapiens, mRNA by qPCR
Experimental: as §4, §5, §6, §7
(§10) In second protocol, reverse transcription was performed using PrimeScript RT Master Mix (Takara). RNA concentration was measured using NanoDrop®ND-1000 spectrophotometer (Witec AG) and 1 μg of total RNA was mixed with 4 μL 5X PrimeScript RT Master Mix in a total reaction volume of 20 μL. The reaction mix was incubated at 37° C. for 15 minutes followed by heat inactivation at 85° C. for 5 seconds.
(§11) QRT-PCR was carried out using 7900 HT Fast Real-Time PCR system (Applied Biosystems) or QuantStudio 3 system (ThermoFisher). Briefly, 12.5 ng of template cDNA was used with a primer concentration of 0.5 μM each and lx SYBR Green dye in a final volume of 10 μL in a 96 well or 384 well plate format.
(§12) To determine the ability of compounds to downregulate EBV driven gene expression, HG-3 cells were treated with selected compounds and percentage inhibition of EBV target genes was determined by quantitative PCR. […] To further determine the anti-oncoviral specificity of compounds, these compounds were tested for their ability to downregulate a NOTCH target gene HES1 in a NOTCH1 positive (EBV negative) human leukemic cell line RPMI8402.
(§13) Upon infection of human cells, EBV is known to induce cancerous transformation of cells via upregulation of host as well as viral genes (e.g LMP1, EBNA2, BATF1, BMI1 and CD21). To determine the ability of compounds to downregulate EBV driven gene expression, HG-3 and LCL070903 cells were treated with selected compounds and percentage inhibition of EBV target genes was determined by quantitative PCR. As shown in Table 5 and Table 6, compounds down regulate EBV target genes such as BMI1 in HG-3 and LCL070903 cells, respectively (FIGS. 3 and 4).

NOTCH target gene HES1 = NOTCH target gene HES1 downregulation in RPMI 8402 cells; type: cell-based, human; design: Percentage inhibition of NOTCH target gene HES1: concentration or dose not given beside the values; conditions: RPMI 8402 cells (NOTCH1 positive, EBV negative)
Experimental: as §5, §6, §11, §12

CD21 [3] = assay: EBV target gene downregulation (qPCR) in HG-3 cells: CD21; type: cell-based; conditions: Homo sapiens, mRNA by qPCR, Table 5
Experimental: as §4
Total RNA was extracted from cells using TRIzol® extraction kit (Invitrogen). Briefly, 1×10^6 cells were washed with ice-cold 1× PBS and lysed in 1 ml of TRIzol® solution for 5 minutes at room temperature to dissociate nucleoprotein complexes. Lysed cells were then treated with 200 μl of chloroform and shaked vigorously for 15-30 seconds and incubated at room temperature for 2-3 minutes. […]
(§14) In first protocol, SuperScript™ RT (Invitrogen) was used for reverse transcription reaction. RNA concentration was measured using NanoDrop®ND-1000 spectrophotometer (Witec AG) and 500 ng of total RNA was mixed with a 10 mM mix of dNTPs and 100 ng of random primers. […]
as §8

BMI1 (EBV target gene) [4] = assay: EBV target gene downregulation (qPCR) in HG-3 cells: BMI1; type: cell-based, human; conditions: 48 hours; for potency in downregulating EBV pathway (BMI1) compared with 6-(4-tert-butylphenoxy)pyridin-3-amine (in words): 10 μM, qRT-PCR, FIG. 4; for inhibition at 10 µM: Homo sapiens, mRNA by qPCR, Table 5
Experimental: EBV positive human B HG-3 cells were treated with 10 μM of the mentioned compounds for 48 hours. Following treatment, total RNA was extracted and mRNA expression analysed by qRT-PCR.
as §4, §5, §6, §7, §10, §11, §13

BMI1 (EBV target gene) [5] = assay: EBV target gene downregulation (qPCR) in LCL070903 cells: BMI1; type: cell-based, human; conditions: 48 hours; for potency in downregulating EBV pathway (BMI1) compared with 6-(4-tert-butylphenoxy)pyridin-3-amine (in words): 10 μM, qRT-PCR, FIG. 3; for inhibition at 10 µM: Homo sapiens, mRNA by qPCR, Table 6
Experimental: EBV positive human B LCL070903 cells were treated with 10 μM of the mentioned compounds for 48 hours. Following treatment, total RNA was extracted and mRNA expression analysed by qRT-PCR.
as §4, §5, §6, §7, §10, §11, §13

[6] = tested on: EBV positive human B HG-3 cells; assay: PrestoBlue proliferation assay in HG-3 cells; type: cell-based; conditions: 72 hours; for anti-proliferative effect on HG-3 cells (in words): PrestoBlue, FIG. 2 and Table 4; for IC50: Homo sapiens, concentration range 0.03-100 μM, PrestoBlue assay, read-out: Anti-proliferative IC50 values (μM) in HG-3 cells
Experimental: as §1, §2, §3
In brief, HG-3 cells were plated in a 96 well plate and treated with an increasing concentration of compounds.

CD21 [7] = assay: EBV target gene downregulation (qPCR) in LCL070903 cells: CD21; type: cell-based; conditions: Homo sapiens, mRNA by qPCR, Table 6
Experimental: as §4
as §5, with “A RNA pellet was obtained by centrifuging the samples at 4° C. for 10 minutes. RNA pellet obtained was washed with 1 ml ice cold 75% ethanol and spun down at 14000 rpm at 4° C. RNA pellet was dried off of excess of ethanol and resuspended in 40 IA DPEC water.” left out
as §14, §8
as §13, with “As shown in Table 5 and Table 6, compounds down regulate EBV target genes such as BMI1 in HG-3 and LCL070903 cells, respectively (FIGS. 3 and 4).” left out

EBNA2 [8] = assay: EBV target gene downregulation (qPCR) in LCL070903 cells: EBNA2; type: cell-based; conditions: Homo sapiens, mRNA by qPCR, Table 6
Experimental: as §4, §5, §6, §7, §10, §11, §13

SMILES | anti-proliferative effect on HG-3 cells (in words) [1] | IC50 [1] [µM] | inhibition at 10 µM (LMP1) [%] | inhibition at 10 µM (RUNX3) [%] | inhibition at 10 µM (EBNA2 [2]; Table 2) [%] | Percentage inhibition of NOTCH target gene HES1 (NOTCH target gene HES1) [%] | downregulation of NOTCH target gene HES1 (in words) (NOTCH target gene HES1) | inhibition at 10 µM (CD21 [3]) [%] | potency in downregulating EBV pathway (BMI1) compared with 6-(4-tert-butylphenoxy)pyridin-3-amine (in words) (BMI1 (EBV target gene) [4]) | inhibition at 10 µM (BMI1 (EBV target gene) [4]) [%] | potency in downregulating EBV pathway (BMI1) compared with 6-(4-tert-butylphenoxy)pyridin-3-amine (in words) (BMI1 (EBV target gene) [5]) | inhibition at 10 µM (BMI1 (EBV target gene) [5]) [%] | anti-proliferative effect on HG-3 cells (in words) [6] | IC50 [6] [µM] | inhibition at 10 µM (CD21 [7]) [%] | inhibition at 10 µM (EBNA2 [2]; Table 5) [%] | inhibition at 10 µM (EBNA2 [8]) [%]
CC(C)(C)c1ccc(Oc2ccc(NCc3cnc(N)nc3)cn2)cc1 [Example 5, 5-(((6-(4-(tert-Butyl)phenoxy)pyridin-3-yl)amino)methyl)pyrimidin-2-amine] | demonstrate anti-proliferative effect | 4.8 | 22 | 57 | 46 | 0 | do not modulate expression of this gene | – | – | – | – | – | – | – | – | – | –
OC(c1ccc(NCc2cccnc2)cc1)c1ccc(-c2ccc(F)cc2)cc1 (stereo not shown) [Example 30, (4′-Fluoro-[1,1′-biphenyl]-4-yl)(4-((pyridin-3-ylmethyl)amino)phenyl)methanol] | – | – | – | – | – | – | – | 10 | enhanced potency | 31 | enhanced potency | 54 | – | – | – | – | –
CC(C)(C)c1ccc(Oc2ccc(NCc3c[nH]cn3)cn2)cc1 [Example 10, N-((1H-Imidazol-4-yl)methyl)-6-(4-(tert-butyl)phenoxy)pyridin-3-amine] | demonstrate anti-proliferative effect | 6.6 | 15 | 37 | – | 0 | do not modulate expression of this gene | – | – | – | – | – | – | – | – | – | –
c1cncc(CNc2ccc(Oc3ccc(-c4cncs4)cc3)nc2)c1 [Example 27, N-(pyridin-3-ylmethyl)-6-(4-(thiazol-5-yl)phenoxy)pyridin-3-amine] | – | – | – | – | – | – | – | – | enhanced potency | – | enhanced potency | 66 | demonstrate anti-proliferative effect | 1.9 | 22 | – | –
Fc1cc(NCc2cccnc2)ccc1Oc1ccc(C2CCCCC2)cc1 [Example 19, 4-(4-Cyclohexylphenoxy)-3-fluoro-N-(pyridin-3-ylmethyl)aniline] | – | – | – | – | – | – | – | – | enhanced potency | 19 | enhanced potency | 56 | demonstrate anti-proliferative effect | 3.5 | – | 36 | 19
Cc1ccccc1-c1ccc(Oc2ccc(NCc3cccnc3)cn2)cc1C [Example 29, 6-((2,2′-dimethyl-[1,1′-biphenyl]-4-yl)oxy)-N-(pyridin-3-ylmethyl)pyridin-3-amine] | – | – | – | – | – | – | – | – | enhanced potency | 28 | enhanced potency | 72 | demonstrate anti-proliferative effect | 2 | – | 6 | 30
CC(C)(C)c1ccc(Oc2ccc(NCc3ccccn3)cn2)cc1 [Example 3, 6-(4-(tert-Butyl)phenoxy)-N-(pyridin-2-ylmethyl)pyridin-3-amine] | demonstrate anti-proliferative effect | 5.4 | 37 | 55 | 16 | 0 | do not modulate expression of this gene | – | – | – | – | – | – | – | – | – | –
CC(C)(C)c1ccc(Oc2ccc(NCc3ccncc3)cn2)cc1 [Example 1, 6-(4-(tert-Butyl)phenoxy)-N-(pyridin-4-ylmethyl)pyridin-3-amine] | demonstrate anti-proliferative effect | 4 | 30 | 27 | – | 0 | do not modulate expression of this gene | – | – | – | – | – | – | – | – | – | –
Cc1nc(Oc2ccc(-c3ccccc3)cc2)ccc1NCc1cccnc1 [Example 23, 6-([1,1′-Biphenyl]-4-yloxy)-2-methyl-N-(pyridin-3-ylmethyl)pyridin-3-amine] | – | – | – | – | – | – | – | – | enhanced potency | 35 | enhanced potency | 39 | demonstrate anti-proliferative effect | 1.9 | – | 1 | 1
